In US11591337B2, “Substituted [1,2,4]triazolo[4,3-a]pyrazines as modulators of mGlu5 receptors” (Recordati Industria Chimica e Farmaceutica S.p.A., priority 2018, dated 2023):
pEC50, pIC50, pKi: −log10 of the molar value.

Assays:
mGlu5 receptor [1] = molecular target: T1, mGlu5 receptor (Homo sapiens, UniProt P41594); test: Radioligand binding assay ([3H]MPEP) at cloned mGluR5; conditions: CHO T-REx h-mGluR5 cells, 4 nM [3H]MPEP, 60 min at 25° C.; read-out: affinity (Ki) for mGlu5 receptor
T1 construct: Human mGluR5 open reading frame (ORF), comprehensive of the stop codon, were cloned into the pcDNA4/TO/myc-His™ A vector; expressed in transfected cells
From the text: Cell lines stably transfected were generated using inducible expression vectors encoding human mGlu5 receptor using the Tetracycline-Regulated Expression system (T-REx™ system, Invitrogen, Life Technologies). Human mGluR5 open reading frame (ORF), comprehensive of the stop codon, were cloned into the pcDNA4/TO/myc-His™ A vector, carrying the TetO2. The insertion site was HindIII-PstI for mGluR5 receptors. The obtained constructs were then transfected into the T-REx CHO™ cell line using the FuGENE protocol (Roche); the CHO T-REx™ cell line stably expresses the Tet repressor (from the pcDNA6/TR plasmid) under the selection of blasticidin, 10 μg/ml. […] The expression of h-mGluR5 receptors was de-repressed with 1 μg/ml tetracycline for 18 h before binding experimentation, while the expression of h-mGluR5 receptors was derepressed respectively with 3 ng/ml and 10 ng/ml tetracycline for 18 h before calcium fluorescence experimentation.
Affinity at transmembrane glutamate metabotropic mGluR5 receptor subtypes was evaluated according to the methods of Anderson (Anderson et al., J Pharmacol. Exp. Ther., (2002), Vol. 303(3), pp. 1044-51), with some modifications. […] Non-specific binding was determined in the presence of 10 μM MPEP. […] The filters were then washed with cold buffer and the radioactivity retained on the filters was counted by liquid scintillation spectrometry (Betaplate 1204 BS-Wallac). […]

mGlu5 receptor [2] = molecular target: T1, mGlu5 receptor; test: Functional activity at mGlu5 receptor as calcium fluorescence measurements; format: cell-based
From the text: Cell lines stably transfected were generated using inducible expression vectors encoding human mGlu5 receptor using the Tetracycline-Regulated Expression system (T-REx™ system, Invitrogen, Life Technologies). Human mGluR5 open reading frame (ORF), comprehensive of the stop codon, were cloned into the pcDNA4/TO/myc-His™ A vector, carrying the TetO2. The insertion site was HindIII-PstI for mGluR5 receptors. The obtained constructs were then transfected into the T-REx CHO™ cell line using the FuGENE protocol (Roche); the CHO T-REx™ cell line stably expresses the Tet repressor (from the pcDNA6/TR plasmid) under the selection of blasticidin, 10 μg/ml. Stable clones were obtained selecting with zeocin 1 mg/ml and maintaining in ULTRA CHO medium (LONZA) supplemented with dialyzed FBS, zeocin, blasticidin, at 37° C., in an atmosphere of 5% CO2. The expression of h-mGluR5 receptors was de-repressed with 1 μg/ml tetracycline for 18 h before binding experimentation, while the expression of h-mGluR5 receptors was derepressed respectively with 3 ng/ml and 10 ng/ml tetracycline for 18 h before calcium fluorescence experimentation.
Cells were seeded into black-walled, clear-bottom, 96-well plates at a density of 80000 cell/well, in RPMI (without Phenol Red, without L-glutamine; Gibco LifeTechnologies, CA) supplemented with 10% dialyzed FBS. Following 18-h incubation with tetracycline, the cells were loaded with 2 mM Ca^2+- sensitive fluorescent dye Fluo-4/AM (Molecular Probes) in Hanks' balanced saline solution (HBSS, Gibco LifeTechnologies, CA) with […] Hepes (Sigma) and 2.5 mM probenecid (Sigma), for 1 h at 37° C. The cells were washed three times with HBSS to remove extracellular dye. Fluorescence signals were measured by using the fluorescence microplate reader Flexstation III (Molecular Devices) at sampling intervals of 1.5 s for 60 s.
The antagonist potency was determined using the EC80 of the quisqualate used as agonist and the potentiation of mGlu5 activation was determined using the EC20 of the agonist (quisqualate or glutamate). […]

T1 sequence (P41594 21-1212): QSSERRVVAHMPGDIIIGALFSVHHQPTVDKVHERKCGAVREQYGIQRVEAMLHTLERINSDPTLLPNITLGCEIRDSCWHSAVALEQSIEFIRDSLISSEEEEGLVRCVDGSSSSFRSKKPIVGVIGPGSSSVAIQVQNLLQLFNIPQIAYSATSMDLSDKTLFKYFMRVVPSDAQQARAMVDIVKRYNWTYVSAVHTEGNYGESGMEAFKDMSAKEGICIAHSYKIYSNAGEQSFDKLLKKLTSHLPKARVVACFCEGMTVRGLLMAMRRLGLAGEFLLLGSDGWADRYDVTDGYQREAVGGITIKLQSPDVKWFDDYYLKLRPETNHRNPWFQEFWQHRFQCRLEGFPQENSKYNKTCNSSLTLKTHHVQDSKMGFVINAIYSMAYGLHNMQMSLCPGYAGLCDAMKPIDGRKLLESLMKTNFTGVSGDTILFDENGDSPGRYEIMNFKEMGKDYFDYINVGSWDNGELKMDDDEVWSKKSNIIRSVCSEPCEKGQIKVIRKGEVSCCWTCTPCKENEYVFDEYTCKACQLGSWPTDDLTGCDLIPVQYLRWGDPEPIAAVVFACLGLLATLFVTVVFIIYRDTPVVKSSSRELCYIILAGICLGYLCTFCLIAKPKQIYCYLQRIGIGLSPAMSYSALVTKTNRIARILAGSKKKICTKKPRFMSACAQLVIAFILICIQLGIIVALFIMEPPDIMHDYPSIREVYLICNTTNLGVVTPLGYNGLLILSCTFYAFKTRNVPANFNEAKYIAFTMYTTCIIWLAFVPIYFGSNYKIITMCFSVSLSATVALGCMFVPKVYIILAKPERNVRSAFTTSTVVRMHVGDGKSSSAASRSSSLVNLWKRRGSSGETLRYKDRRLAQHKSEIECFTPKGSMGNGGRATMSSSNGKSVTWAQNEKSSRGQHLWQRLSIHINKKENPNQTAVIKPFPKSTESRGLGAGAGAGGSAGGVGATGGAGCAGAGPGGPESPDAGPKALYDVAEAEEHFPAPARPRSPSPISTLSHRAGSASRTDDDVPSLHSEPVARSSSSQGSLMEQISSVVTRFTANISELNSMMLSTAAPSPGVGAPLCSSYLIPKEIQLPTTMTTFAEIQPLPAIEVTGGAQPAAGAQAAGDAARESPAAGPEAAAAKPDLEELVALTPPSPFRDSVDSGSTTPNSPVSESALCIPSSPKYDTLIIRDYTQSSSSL

Row | pKi (mGlu5 receptor [1]) | pEC50 (mGlu5 receptor [2]; potentiation of mGlu5 activation at EC20 of the agonist (quisqualate or glutamate), read-out: positive allosteric activity EC50) | type of allosteric modulation (mGlu5 receptor [2]) | pIC50 (mGlu5 receptor [2]; antagonist potency at EC80 of quisqualate, read-out: negative allosteric modulation activity IC50) | Compound
1 | 7.47 | 6.53 |  |  | O=C(c1cccc(Cl)c1)N1CCn2c(C#Cc3cccc(Cl)c3)nnc2C1 [Example 8, (3-Chlorophenyl)-[3-[2-(3-chlorophenyl)ethynyl]-6,8-dihydro-5H-[1,2,4]triazolo[4,3-a]pyrazin-7-yl]methanone]
2 | 7.49 |  | negative allosteric modulator | 7.22 | CCN(C)C(=O)N1CCn2c(C#Cc3cccc(C)c3)nnc2C1 [Example 40, N-Ethyl-N-methyl-3-[2-(m-tolyl)ethynyl]-6,8-dihydro-5H-[1,2,4]triazolo[4,3-a]pyrazine-7-carboxamide]
